# Experimental data taken from patent US11021481B2, “Substituted isoindolin-1-ones and 2,3-dihydro-1h-pyrrolo[3,4-c]pyridin-1-ones as HPK1 antagonists” (Nimbus Saturn, Inc., priority 2019, dated 2021).
# Target: HPK1 (Homo sapiens (Human), UniProt Q92918)
# Experiment: HPK1 biochemical enzyme assay (microfluidic mobility shift assay)
# Conditions: 1.5 nM HPK1, ATP 1 mM final, 30 min preincubation, 60 min at RT, Caliper EZ Reader; read-out: HPK1 1000UMATP caliper IC50
# How it was run: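 Ten-point compound titrations (top 3 μM final) preincubated 30 min with HPK1 and substrate, then reaction started with 1 mM ATP and 1 μM substrate, 5 mM MgCl2. After 60 min at RT, reaction terminated and product measured by microfluidic mobility shift.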
# Chain of HPK1 (Q92918 whole entry): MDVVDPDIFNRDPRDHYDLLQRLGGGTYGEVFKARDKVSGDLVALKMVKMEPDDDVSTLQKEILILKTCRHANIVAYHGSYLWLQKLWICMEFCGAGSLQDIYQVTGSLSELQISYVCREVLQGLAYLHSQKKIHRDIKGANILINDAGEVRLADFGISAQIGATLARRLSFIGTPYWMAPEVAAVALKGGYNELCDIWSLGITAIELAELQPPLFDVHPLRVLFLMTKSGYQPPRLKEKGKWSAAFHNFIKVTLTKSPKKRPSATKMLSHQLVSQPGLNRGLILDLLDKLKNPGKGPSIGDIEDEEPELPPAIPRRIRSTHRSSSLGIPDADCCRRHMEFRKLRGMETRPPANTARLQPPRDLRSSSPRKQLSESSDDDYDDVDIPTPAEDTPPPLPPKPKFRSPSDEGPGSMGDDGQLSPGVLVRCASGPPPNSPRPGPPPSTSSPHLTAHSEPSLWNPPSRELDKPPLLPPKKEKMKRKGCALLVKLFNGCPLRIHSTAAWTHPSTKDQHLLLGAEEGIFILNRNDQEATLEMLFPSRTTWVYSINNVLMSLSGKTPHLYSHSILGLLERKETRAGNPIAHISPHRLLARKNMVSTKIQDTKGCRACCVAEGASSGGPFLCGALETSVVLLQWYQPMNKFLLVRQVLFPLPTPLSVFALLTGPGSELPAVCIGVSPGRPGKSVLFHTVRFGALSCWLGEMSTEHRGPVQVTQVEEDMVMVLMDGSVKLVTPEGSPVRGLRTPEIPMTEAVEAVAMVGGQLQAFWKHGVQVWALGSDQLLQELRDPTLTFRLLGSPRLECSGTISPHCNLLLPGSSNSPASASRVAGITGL
row,Compound,IC50 [nM]
1,"CN(C)Cc1nc(Nc2cnc(-c3ccnc4c3ccn4C)c3c2C(=O)NC3)ccc1N1CCO[C@@H](C(C)(C)O)C1 [I-769, (R)-7-((6-((dimethylamino)-methyl)-5-(2-(2-hydroxypropan-2-yl)morpholino)pyridin-2-yl)amino)-4-(1-methyl-1H-pyrrolo[2,3-b]pyridin-4-yl)-2,3-dihydro-1H-pyrrolo[3,4-c]pyridin-1-one]",< 100
2,Cn1ccc2c(-c3ncc(Nc4ccc(N5CCO[C@@H](C(C)(C)O)C5)cn4)c4c3CNC4=O)ccnc21 [I-459],< 100
3,"Cc1[nH]c2ncccc2c1-c1ccc(Nc2ccc(N3CCN(C)CC3)cn2)c2c1CNC2=O [I-27, 7-[[5-(4-methylpiperazin-1-yl)-2-pyridyl]amino]-4-(2-methyl-1H-pyrrolo[2,3-b]pyridin-3-yl)-isoindolin-1-one]",100 to 1000
4,"Cn1ccc2c(-c3ccc(-n4ccc(N5CCC[C@](C)(O)C5)n4)c4c3CNC4=O)ccnc21 (single isomer, unassigned) [I-306]",> 1000
5,"4-(1-methyl- 1H-indol-4- yl)-7-((5- (piperazin-1- yl)pyridin-2- yl)amino)-2,3- dihydro-1H- pyrrolo[3,4- c]pyridin-1-one [I-266]",< 100
6,"Cn1ccc2c(-c3ccc(Nc4ccc(N5CC6(CC(O)C6)C5)cn4)c4c3CNC4=O)ccnc21 [I-297, 7-((5-(6-hydroxy-2-azaspiro[3,3]heptan-2-yl)pyridin-2-yl)amino)-4-(1-methyl-1H-pyrrolo[2,3-b]pyridin-4-yl)isoindolin-1-one]",< 100
7,Cn1nc(Nc2ccc(-c3cnc4cc(F)ccn34)c3c2C(=O)NC3)cc1C1CCOCC1 [I-408],< 100
8,"CNC1CCN(c2ccc(Nc3ccc(-c4cnc5ccccn45)c4c3C(=O)NC4)nc2)CC1 [I-58, 4-imidazo[1,2-a]pyridin-3-yl-7-[[5-[4-(methylamino)-1-piperidyl]-2-pyridyl]amino] isoindolin-1-one]",< 100
9,"COc1ccn2c(-c3ccc(Nc4ccc(N5CCC(O)CC5)cn4)c4c3CNC4=O)cnc2c1 [I-164, 7-[[5-(4-hydroxy-1-piperidyl)-2-pyridyl]amino]-4-(7-methoxylmidazo[1,2-a]pyridin-3-yl)isoindolin-1-one]",< 100
10,"O=C1NCc2c(-c3cnc4c(F)cccn34)ccc(Nc3ccc(N4CCNCC4)cn3)c21 [I-88, 4-(8-fluoroimidazo [1,2-a]pyridin-3-yl)-7-[(5-piperazin-1-yl-2-pyridyl)amino] isoindolin-1-one]",< 100
11,"Cn1ccc2c(-c3ncc(Nc4cccc(N5C[C@@H](CN6CCC6)CCC5=O)n4)c4c3CNC4=O)ccnc21 [I-688, (R)-7-((6-(5-(azetidin-1-ylmethyl)-2-oxopiperidin-1-yl)pyridin-2-yl)amino)-4-(1-methyl-1H-pyrrolo[2,3-b]pyridin-4-yl)-2,3-dihydro-1H-pyrrolo[3,4-c]pyridin-1-one]",> 1000
12,"Cc1ccc2c(-c3ccc(Nc4ccc(C5CCOC5)c(CN(C)C)n4)c4c3CNC4=O)cnn2c1 (stereo in doubt) [I-732, (R)-7-((6-((dimethylamino)-methyl)-5-(tetrahydrofuran-3-yl)pyridin-2-yl)amino)-4-(6-methylpyra-zolo[1,5-a]pyridin-3-yl)isoindolin-1-one]",< 100
13,"Cn1ccc2c(-c3ncc(Nc4ccc(N5CCC[C@@H](C(C)(C)O)C5)cn4)c4c3CNC4=O)ccnc21 [I-212, 7-[[5-[(3R)-3-(1-hydroxy-1-methyl-ethyl)-1-piperidyl]-2-pyridyl]amino]-4-(1-methylpyrrolo [2,3-b]pyridin-4-yl)-2,3-dihydropyrrolo [3,4-c]pyridin-1-one]",< 100
14,"O=C1NCc2c(-c3cnc4cc(F)ccn34)ccc(Nc3ccc([C@H]4CCOC4)c(CN4CC[C@H](O)C4)n3)c21 [I-778, 4-(7-fluoroimidazo[1,2-a]pyridin-3-yl)-7-((6-(((S)-3-hydroxypyrrolidin-1-yl)methyl)-5-((R)-tetrahydrofuran-3-yl)pyridin-2-yl)amino)isoindolin-1-one]",< 100
